Source: PubChem BioAssay AID248 (DTP/NCI, 2004)
“And” between values parts separate entries of the source, which are not always exact repeats. Equal entries are not always repeated. Toxic doses and inconclusive results are not listed. Square brackets hold non-standard residues; d marks the D form. Peptide text beside a SMILES is read from it. * marks the point of attachment. Tos = Cc1ccc(S(=O)(=O)*)cc1; ΔPro = O=C(O)[CH]1C=CCN1

Tested on: L1210 leukemia ip in BDF1 mice, survival T/C
Test: NCI In Vivo Anticancer Drug Screen. Data for tumor model L1210 Leukemia (intraperitoneal) in B6D2F1 (BDF1) mice
Conditions: endpoint: mean survival time, higher = longer survival
Method in brief: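 Transplantable tumor model; survival measured in treated vs vehicle control mice. Value = treated/control.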

[1] = dose: 100.0 mg/kg/injection, schedule: Q04DX003 (ip), vehicle: saline with Tween-80
[2] = dose: 200.0 mg/kg/injection, schedule: Q04DX003 (ip), vehicle: saline with Tween-80
[3] = dose: 400.0 mg/kg/injection, schedule: Q04DX003 (ip), vehicle: saline with Tween-80
[4] = dose: 100.0 mg/kg/injection, schedule: Q01DX009 (ip), vehicle: saline with Tween-80
[5] = dose: 200.0 mg/kg/injection, schedule: Q04DX002 (ip), vehicle: saline with Tween-80
[6] = dose: 400.0 mg/kg/injection, schedule: Q04DX002 (ip), vehicle: saline with Tween-80
[7] = dose: 100.0 mg/kg/injection, schedule: Q01DX009 (ip), vehicle: Klucel (hydroxypropylcellulose) (HPC)
[8] = dose: 200.0 mg/kg/injection, schedule: Q01DX009 (ip), vehicle: Klucel (hydroxypropylcellulose) (HPC)
[9] = dose: 400.0 mg/kg/injection, schedule: Q01DX009 (ip), vehicle: Klucel (hydroxypropylcellulose) (HPC)
[10] = dose: 100.0 mg/kg/injection, schedule: Q04DX003 (ip), vehicle: Klucel (hydroxypropylcellulose) (HPC)
[11] = dose: 200.0 mg/kg/injection, schedule: Q04DX003 (ip), vehicle: Klucel (hydroxypropylcellulose) (HPC)

**Q.** Which T/C (dose: 100.0 mg/kg/injection, schedule: Q01DX001 (ip), vehicle: saline with Tween-80) does the source give for CCOC(=O)c1ccc(NCc2nnc3nc(N)nc(SCc4ccccc4)c3n2)cc1 here?
**A.** 96 % of control

**Q.** What about the T/C (dose: 200.0 mg/kg/injection, schedule: Q01DX001 (ip), vehicle: saline with Tween-80) of the same molecule?
**A.** 98 % of control

**Q.** What about the T/C (dose: 400.0 mg/kg/injection, schedule: Q01DX001 (ip), vehicle: saline with Tween-80) of the same molecule?
**A.** 92 % of control

**Q.** How did the T/C [1] turn out when O=C(O)Cn1c(=O)n(CC(=O)O)c2ccccc21 was run?
**A.** 93 % of control

**Q.** What about the T/C [2] of the same molecule?
**A.** 98 % of control

**Q.** And the T/C [3]?
**A.** 98 % of control

**Q.** How did the T/C (dose: 75.0 mg/kg/injection, schedule: Q01DX001 (ip), vehicle: saline sonified) turn out when Cc1csc2nc(-c3ccccc3)[nH]c(=O)c12 was run?
**A.** 86 % of control

**Q.** What about the T/C (dose: 150.0 mg/kg/injection, schedule: Q01DX001 (ip), vehicle: saline sonified) of the same molecule?
**A.** 101 % of control

**Q.** And the T/C (dose: 300.0 mg/kg/injection, schedule: Q01DX001 (ip), vehicle: saline sonified)?
**A.** 107 % of control

**Q.** Which results are given for N#CCCC(C#N)(c1ccncc1)N1CCOCC1 (configuration not stated)?
**A.** T/C (dose: 12.5 mg/kg/injection, schedule: Q01DX009 (ip), vehicle: saline with Tween-80): 105 % of control; T/C (dose: 25.0 mg/kg/injection, schedule: Q01DX009 (ip), vehicle: saline with Tween-80): 102 % of control; T/C (dose: 50.0 mg/kg/injection, schedule: Q01DX009 (ip), vehicle: saline with Tween-80): 94 % of control and 91 % of control

**Q.** With CCOc1ccccc1NCN1C(=O)c2ccccc2C1=O as the molecule, how does the T/C [4] read?
**A.** 90 % of control

**Q.** And the T/C [5]?
**A.** 223 % of control

**Q.** What about the T/C [6] of the same molecule?
**A.** 91 % of control

**Q.** With COc1ccc(C(=O)NC(=S)Nc2cccc([N+](=O)[O-])c2)cc1 as the molecule, how does the T/C [4] read?
**A.** 95 % of control and 88 % of control

**Q.** What about the T/C (dose: 100.0 mg/kg/injection, schedule: Q04DX002 (ip), vehicle: saline) of the same molecule?
**A.** 88 % of control

**Q.** What about the T/C (dose: 200.0 mg/kg/injection, schedule: Q01DX009 (ip), vehicle: saline with Tween-80) of the same molecule?
**A.** 88 % of control and 89 % of control

**Q.** And the T/C (dose: 200.0 mg/kg/injection, schedule: Q04DX002 (ip), vehicle: saline)?
**A.** 91 % of control

**Q.** What about the T/C (dose: 400.0 mg/kg/injection, schedule: Q01DX009 (ip), vehicle: saline with Tween-80) of the same molecule?
**A.** 103 % of control

**Q.** What about the T/C (dose: 400.0 mg/kg/injection, schedule: Q04DX002 (ip), vehicle: saline) of the same molecule?
**A.** 98 % of control

**Q.** How did the T/C (dose: 50.0 mg/kg/injection, schedule: Q01DX009 (ip), vehicle: other) turn out when CC(/C=C/c1ccco1)=N\O was run?
**A.** 105 % of control

**Q.** With COc1ccc(N=CC(=O)c2ccc(C)cc2)c([N+](=O)[O-])c1 as the molecule, how does the T/C (dose: 100.0 mg/kg/injection, schedule: Q01DX001 (ip), vehicle: Klucel (hydroxypropylcellulose) (HPC)) read?
**A.** 107 % of control

**Q.** What about the T/C (dose: 200.0 mg/kg/injection, schedule: Q01DX001 (ip), vehicle: Klucel (hydroxypropylcellulose) (HPC)) of the same molecule?
**A.** 104 % of control

**Q.** And the T/C (dose: 400.0 mg/kg/injection, schedule: Q01DX001 (ip), vehicle: Klucel (hydroxypropylcellulose) (HPC))?
**A.** 95 % of control

**Q.** With CCN(CCNc1cc(C)nc(/N=C(\N)Nc2ccc(Cl)c(Cl)c2)n1)CC(C)(C)O as the molecule, how does the T/C (dose: 75.0 mg/kg/injection, schedule: Q01DX001 (ip), vehicle: other) read?
**A.** 93 % of control

**Q.** What about the T/C (dose: 150.0 mg/kg/injection, schedule: Q01DX001 (ip), vehicle: other) of the same molecule?
**A.** 95 % of control

**Q.** What about the T/C (dose: 300.0 mg/kg/injection, schedule: Q01DX001 (ip), vehicle: other) of the same molecule?
**A.** 104 % of control

**Q.** For CCOC(=O)/C(N=O)=C(/O)c1ccccc1, which T/C [1] is on record?
**A.** 103 % of control

**Q.** And the T/C [2]?
**A.** 94 % of control

**Q.** And the T/C [3]?
**A.** 96 % of control

**Q.** For C=CCC(Cc1cc(CC(CC=C)(C(=O)OCC)C(=O)OCC)cc(CC(CC=C)(C(=O)OCC)C(=O)OCC)c1)(C(=O)OCC)C(=O)OCC, which T/C (dose: 100.0 mg/kg/injection, schedule: Q04DX003 (ip), vehicle: acetone) is on record?
**A.** 107 % of control

**Q.** What about the T/C (dose: 200.0 mg/kg/injection, schedule: Q04DX003 (ip), vehicle: acetone) of the same molecule?
**A.** 90 % of control

**Q.** And the T/C (dose: 400.0 mg/kg/injection, schedule: Q04DX003 (ip), vehicle: acetone)?
**A.** 96 % of control

**Q.** With COc1cc(C)ccc1C1OC(=O)c2c1ccc(OC)c2OC (configuration not stated) as the molecule, how does the T/C (dose: 100.0 mg/kg/injection, schedule: Q01DX001 (ip), vehicle: saline) read?
**A.** 97 % of control

**Q.** What about the T/C (dose: 200.0 mg/kg/injection, schedule: Q01DX001 (ip), vehicle: saline) of the same molecule?
**A.** 101 % of control

**Q.** And the T/C (dose: 400.0 mg/kg/injection, schedule: Q01DX001 (ip), vehicle: saline)?
**A.** 92 % of control

**Q.** What does the source list for NNC(=O)c1ccc(NC(=S)Nc2ccccc2)cc1?
**A.** T/C [7]: 93 % of control; T/C [8]: 93 % of control; T/C [9]: 104 % of control

**Q.** Which results are given for O=C(O)CCC(NC(=O)OCc1ccccc1)C(=O)OCc1ccccc1 (configuration not stated)?
**A.** T/C (dose: 50.0 mg/kg/injection, schedule: Q01DX009 (ip), vehicle: Klucel (hydroxypropylcellulose) (HPC)): 101 % of control; T/C [7]: 103 % of control; T/C [10]: 101 % of control; T/C [8]: 90 % of control; T/C [11]: 105 % of control

**Q.** How did the T/C (dose: 50.0 mg/kg/injection, schedule: Q01DX005 (ip), vehicle: saline) turn out when COC(=O)C1C=CCN1C(=O)C(Cc1ccccc1)NS(=O)(=O)c1ccc(C)cc1 (stereo not drawn) (Tos-Phe-[ΔPro]-OMe; configuration not given here) was run?
**A.** 96 % of control

**Q.** And the T/C (dose: 100.0 mg/kg/injection, schedule: Q01DX005 (ip), vehicle: saline)?
**A.** 107 % of control

**Q.** What about the T/C (dose: 200.0 mg/kg/injection, schedule: Q01DX005 (ip), vehicle: saline) of the same molecule?
**A.** 105 % of control

**Q.** For CCCOC(=O)c1cncc(C(=O)OCCC)c1, which T/C [1] is on record?
**A.** 94 % of control

**Q.** What about the T/C [2] of the same molecule?
**A.** 105 % of control

**Q.** What about the T/C [3] of the same molecule?
**A.** 100 % of control

**Q.** What does the source list for CNc1ccc(S(=O)(=O)O)cc1?
**A.** T/C [7]: 98 % of control; T/C [10]: 104 % of control; T/C [8]: 103 % of control; T/C [11]: 102 % of control; T/C [9]: 101 % of control; T/C (dose: 400.0 mg/kg/injection, schedule: Q04DX003 (ip), vehicle: Klucel (hydroxypropylcellulose) (HPC)): 98 % of control

**Q.** Which results are given for O=C1OC(=O)C2C=CC=CC12 (configuration not stated)?
**A.** T/C (dose: 100.0 mg/kg/injection, schedule: Q04DX002 (ip), vehicle: saline with Tween-80): 92 % of control; T/C [5]: 103 % of control; T/C [6]: 95 % of control

**Q.** What does the source list for CCC(C)(C)NC1=C(Cl)C(=O)c2ccccc2C1=O?
**A.** T/C (dose: 6.25 mg/kg/injection, schedule: Q01DX001 (ip), vehicle: saline with Tween-80): 95 % of control; T/C (dose: 12.5 mg/kg/injection, schedule: Q01DX001 (ip), vehicle: saline with Tween-80): 106 % of control

**Q.** Which results are given for NC(=S)N/N=C(/c1cccs1)C1CC1?
**A.** T/C (dose: 4.0 mg/kg/injection, schedule: Q01DX Z (ip), vehicle: carboxymethylcellulose (CMC)): 116 % of control; T/C (dose: 4.0 mg/kg/injection, schedule: Q01DX Z (oral), vehicle: carboxymethylcellulose (CMC)): 97 % of control; T/C (dose: 8.0 mg/kg/injection, schedule: Q01DX Z (ip), vehicle: carboxymethylcellulose (CMC)): 107 % of control; T/C (dose: 8.0 mg/kg/injection, schedule: Q01DX Z (oral), vehicle: carboxymethylcellulose (CMC)): 115 % of control; T/C (dose: 16.0 mg/kg/injection, schedule: Q01DX Z (oral), vehicle: carboxymethylcellulose (CMC)): 107 % of control
